In one data set the test system is HCS. The data set can be described thus: Substrate specificity of HCS. Format: biochemical, Cupriavidus sp. KNK-J915. The settings on record: for Relative activity (%): activity on (R,S)-nipecotamide set to 100, 1% substrate, 30° C., 100 mM phosphate buffer pH 7.0. Here is the method: Next, the substrate specificity of HCS was analyzed. The substrate compound was added in a form of a 1% solution. The enzyme reaction was allowed to proceed at 30° C. in 100 mM phosphate buffer (pH 7.0). The resultant solution was analyzed under the high speed liquid chromatography analysis conditions A described in Example 1 or the high speed liquid chromatography analysis conditions B shown below.
High Speed Liquid Chromatography Analysis Condition B
Column: SUMICHIRAL OA-5000 (4.6 mmφ×150 mm, product of Sumika Chemical Analysis Service, Ltd.)
Eluant: 2 mM CuSO4 aqueous solution
(§1) Column temperature: 30° C.
Measurement wavelength: 254 nm

The test system of a further data set is purified enzyme (HCS). The experiment in a line: Selective hydrolysis of racemic carboxylic acid amides with the purified enzyme solution (Examples 8 to 10). In kind it is biochemical, Cupriavidus sp. KNK-J915. The following applies: 100 mM phosphate buffer pH 7.0, 30° C.; for conversion ratio: 1% substrate; for optical purity: product acid, 1% racemic substrate. On the procedure:
To 100 mM phosphate buffer (pH 7.0) were added 1% racemic pipecolic acid amide and the purified enzyme solution obtained in Example 1, and allowed to react at 30° C. Then high speed liquid chromatography analysis was conducted to determine the conversion ratio (%) and optical purity (% e.e.). […] Conversion ratio (%)=P/(S1+P)×100
(§2) (P: amount of product (mol), S1: amount of residual substrate (mol)) Optical purity (% e.e.)=(A−B)/(A+B)×100
(§3) (A represents the amount of the target enantiomer, and B represents the amount of the corresponding enantiomer.)
To 100 mM phosphate buffer solution (pH 7.0) were added 1% racemic indoline carboxylic acid amide and the purified enzyme solution obtained in Example 1. The obtained mixture was allowed to react at 30° C., and then the substrate and product in the reaction liquid were converted into derivatives with acetic anhydride. The conversion ratio (%) and optical purity (% e.e.) were determined by high speed liquid chromatography analysis of the obtained derivatives.
To 100 mM phosphate buffer (pH 7.0) were added 1% racemic phenyl propionic acid amide and the purified enzyme solution obtained in Example 1, and allowed to react at 30° C. The conversion ratio (%) and optical purity (% e.e.) were determined by high speed liquid chromatography analysis.

Data set [1] deals with putative amidase derived from Ralstonia eutropha JMP134 strain. The data set can be described thus: Selective hydrolysis of S-enantiomer in racemic N-benzylnipecotamide with culture solution of E. coli HB101 (pNRE). Format: biochemical. An excerpt: Primer 7 (SEQ ID NO:10 in the sequence listing) having the NdeI site added to the initiation codon site, and primer 8 (SEQ ID NO:11 in the sequence listing) having an SacI site immediately downstream of the termination codon were synthesized based on the base sequence (SEQ ID NO:9 in the sequence listing) encoding the putative amidase derived from Ralstonia eutropha JMP134 strain, which has high sequence identity to the base sequence of the present invention derived from Cupriavidus sp. KNK-J915 (FERM BP-10739) determined in Example 3. An amount of 50 μl of a buffer for ExTaq was prepared. This buffer contained the two primers (primer 7 and primer 8, each 50 pmol), chromosomal DNA derived from Ralstonia eutropha JMP134 strain (10 ng), dNTP (each 10 nmol) and ExTaq (2.5 U, product of TAKARA SHUZO Co., Ltd.). Heat denaturation (97° C., 1 minute), annealing (60° C., 1 minute), and an extension reaction (72° C., 1.5 minutes) were repeated for 30 cycles. The reaction fluid was cooled to 4° C. and subjected to agarose gel electrophoresis to confirm amplification of the DNA. […]
To 100 mM phosphate buffer (pH 7.0) were added 1% racemic N-benzylnipecotamide and the culture solution of E. coli HB101 (pNRE) obtained in Example 11, and allowed to react at 30° C. Thereafter, the conversion ratio (%) and optical purity (% e.e.) were determined by high speed liquid chromatography analysis. […]

A further data set has as its system E. coli HB101 (pNCS). The experiment in a line: Selective hydrolysis of S-enantiomer in racemic nipecotamide with culture solution of E. coli HB101 (pNCS). The following applies: pH 8.0, 25 hours, 45° C.; for optical purity: from racemic nipecotamide. In kind it is biochemical, Escherichia coli. Here is the method:
An amount of 10.1 g of racemic nipecotamide was dissolved in water to prepare a substrate solution having a pH adjusted to 8.0. To 200 ml of the prepared substrate solution was added 2 ml of a culture solution obtained by culturing E. coli HB101 (pNCS) as in Example 6, and stirred for 25 hours at 45° C. After completion of the reaction, the reaction liquid was heated for 30 minutes at 70° C., and centrifuged to remove solid matters including cells. Subsequently, the substrate and the product in the reaction liquid were converted into derivatives with benzyl chloroformate. The obtained derivatives were analyzed by high speed liquid chromatography to determine the conversion ratio (%) and optical purity (% e.e.). […] Conversion ratio (%)=P/(S1+P)×100
as §2, §3
High Speed Liquid Chromatography Analysis Condition
[Analysis of Conversion Ratio]
(§4) Column: YMC-A303 (4.6 mmφ×250 mm, product of YMC Co., Ltd.)
Eluant: 20 mM phosphate aqueous solution (pH 2.5)/acetonitrile=7/3
Column temperature: 35° C.
(§5) Measurement wavelength: 210 nm
[Optical Purity Analysis]
Column: CHIRALPAK AD-RH (4.6 mmφ×150 mm, product of DAICEL CHEMICAL INDUSTRIES, LTD.)
Column temperature: room temperature

The nature of data set [2]: Optimum pH, optimum temperature and thermal stability of the amidase reaction of purified HCS. In kind it is biochemical. The following applies: stable at or below this temperature. On the procedure: The Optimum pH and optimum temperature of an amidase reaction of the purified enzyme obtained in Example 1, and thermal stability of the enzyme were determined by quantifying N-benzylnipecotic acid produced in the hydrolysis reaction using N-benzylnipecotamide as a substrate, by HPLC. For determination of the optimum pH, the reaction was allowed to proceed at each pH for 1 hour at 30° C., and stopped by addition of acetonitrile. The resultant solution was analyzed under the high speed liquid chromatography analysis conditions A described in Example 1. For determination of the optimum temperature, the reaction was allowed to proceed at each temperature for 1 hour, and stopped by addition of acetonitrile. The resultant solution was analyzed under the high speed liquid chromatography analysis conditions A described in Example 1. For determining the thermal stability, after incubation at each temperature for 30 minutes, the reaction was allowed to proceed for 1 hour, and stopped by addition of acetonitrile. The resultant solution was analyzed under the high speed liquid chromatography analysis conditions A described in Example 1.

Data set [3] is described as follows: Amidase activity of purified enzyme (production of N-benzylnipecotic acid, HPLC). In kind it is biochemical. The following applies: 1% N-benzylnipecotamide, 100 mM phosphate buffer pH 7.0, 1 hour, 30° C. On the procedure: In the following examples, the amidase activity was determined by the following procedure. To 100 mM phosphate buffer (pH 7.0) were added 1% N-benzylnipecotamide and an enzyme solution, and allowed to react for 1 hour at 30° C. Then, the solution was analyzed under high speed liquid chromatography analysis conditions A. Enzyme activity which produces 1 μmol of N-benzylnipecotic acid per 1 minute under these conditions was defined as 1 unit.
High Speed Liquid Chromatography Analysis Condition A
as §4
Eluant: 20 mM phosphate aqueous solution (pH 2.5)/acetonitrile=9/1
as §1, §5

“Also recorded” adds a separate entry of the source. Like-named read-outs stand apart in the source and are kept apart here. A value given as a limit tells only on which side of the number the result lay.

In the case of `NC(=O)C1Cc2ccccc2N1` (centres unmarked), in the data set on HCS, the “amidase activity of HCS on the substrate (in words)” value (“amidase activity of HCS” below) is on record as “particularly strong amidase activity; also recorded: especially strong activity” and the “Relative activity (%)” value worked out at 64%. Besides, the conversion ratio with purified enzyme (HCS) came to 39.2%.
As for `O=C(NCc1ccccc1)C1CCCNC1` (racemic) [(R,S)-N-benzylnipecotamide], in the data set on HCS, the “amidase activity of HCS” value was “particularly strong amidase activity; also recorded: especially strong activity” and the “Relative activity (%)” value was 49%. Also, the conversion ratio in data set [1] (1% substrate, 100 mM phosphate buffer pH 7.0, 30° C.) is 50.1%.
Regarding `NC(=O)C(O)c1ccccc1` (racemic) [(R,S)-mandelic acid amide], in the data set with HCS, the “amidase activity of HCS” value was “particularly strong amidase activity; also recorded: especially strong activity” and the “Relative activity (%)” value stood at 49%.
Regarding `NC(=O)C1CCCNC1` (racemic) [(R,S)-nipecotamide], the conversion ratio in the data set on E. coli HB101 (pNCS) is 50.2%. Besides, in the data set on HCS, the “amidase activity of HCS” value was “particularly strong amidase activity; also recorded: especially strong activity” and the “Relative activity (%)” value is listed as 100%.
`CC(C(N)=O)c1ccccc1` (racemic) [(R,S)-phenyl propionic acid amide]: in the data set with HCS, the “Relative activity (%)” value is 309%. The “amidase activity of HCS” value with HCS (listed as phenyl propionic acid amide) is listed as “particularly strong amidase activity”; with HCS (listed as phenylpropionic acid amide) it was “especially strong activity”. Further, the conversion ratio with purified enzyme (HCS) stood at 36.0%.
As to `NC(=O)C1CCCCN1` (racemic) [(R,S)-pipecolic acid amide], in the data set on HCS, the “amidase activity of HCS” value is “particularly strong amidase activity; also recorded: especially strong activity” and the “Relative activity (%)” value is 34%. For the same molecule, in the data set with purified enzyme (HCS), the conversion ratio amounted to 18.3%.
For `CC(N)C(N)=O` (racemic) [D,L-alanine amide], the “Relative activity (%)” value in the data set with HCS is listed as 0%.
Same read-out and setting: then `CC(C)CC(N)C(N)=O` (racemic) [D,L-leucine amide], with 0%.
Regarding `NC(=O)C(N)Cc1ccccc1` (racemic) [D,L-phenylalanine amide], in the data set on HCS, the “amidase activity of HCS” value is “weak amidase activity” and the “Relative activity (%)” value is 3.4%.
As for `NC(=O)C1CCCN1` (racemic) [D,L-proline amide], the “Relative activity (%)” value with HCS is 0%.
As for `NC(=O)CC(N)c1ccccc1` (racemic) [D,L-β-phenylalanine amide], the “Relative activity (%)” value with HCS came to 0%.
With `O=C(O)[C@H]1Cc2ccccc2N1` [(R)-indoline carboxylic acid], the optical purity in the data set on purified enzyme (HCS) is listed as 97.8 % e.e.
Regarding `NC(=O)[C@@H]1CCCNC1` [(R)-nipecotamide], in the data set with E. coli HB101 (pNCS), the optical purity is recorded as 98.3 % e.e.
Molecule `O=C(O)[C@H]1CCCCN1` [(R)-pipecolic acid] displayed an optical purity in the data set on purified enzyme (HCS) of 80.1 % e.e.
Molecule `O=C(NCc1ccccc1)[C@@H]1CCCNC1` [(R)—N-benzylnipecotamide] displayed an optical purity in data set [1] (residual amide, pH 7.0, 30° C.) of 99.4 % e.e.
In turn, `O=C(O)[C@H]1CCCNC1` [(S)-nipecotic acid] showed an optical purity in the data set on E. coli HB101 (pNCS) of 97.1 % e.e.
Take `C[C@H](C(=O)O)c1ccccc1` [(S)-phenyl propionic acid]: in the data set on purified enzyme (HCS), the optical purity came to 89.1 % e.e.
Regarding `NC(=O)c1ccccc1` [benzamide], in the data set with HCS, the “amidase activity of HCS” value is “weak amidase activity” and the “Relative activity (%)” value stood at 5.4%.
For `CC(C)C(N)=O` [isobutylamide], in the data set on HCS, the “amidase activity of HCS” value is “particularly strong amidase activity; also recorded: especially strong activity” and the “Relative activity (%)” value was 230%.
For `CCC(N)=O` [propionic acid amide], in the data set on HCS, the “amidase activity of HCS” value is listed as “particularly strong amidase activity; also recorded: especially strong activity” and the “Relative activity (%)” value came out at 59%.

B1: HCS: amidase purified from Cupriavidus sp. KNK-J915 strain (FERM BP-10739), amino acid sequence SEQ ID NO:1 (protein, listed as Cupriavidus sp.)
chain: MPTDIQTLQTRLHDGAVSRADVIAQAAQHAQQPDAHAVFLHTTFDTAAQVAKAADAACLAGKPLHPLAGLPVSVKDLFNIAGEASRAGSPVRSDALAATADATVVRRLRESGAALVGRTNMTEFAFSGVGINPHFGTPVNPADKQVARIPGGSSSGAAVSVALGLAVAGLGSDTGGSIRIPAALCGLTGFKPTARRVPLDGAFPLSYTLDTACAMARTVQDCVLVDSVIADQAVLPVIKGAAGIRLAIPRQVLLDDLDDTVARAFDRALGRLSAAGVQIEHIDLPELAELATINASGGFTAAEAHAIHRHVLATRREQYDPRVASRIDRGAAMSAADYVDLMRARLDWITRVAARLEGFDAVACPTVPMVAPPIAPLVADDALFFHTNALLLRNTSAFNFLDGCSISLPCHQPDELPVGLMLSHGALRDAQLLGTAIALESIVKPAA
On to B1, for which the “Thermal stability: temperature at which stable” value in data set [2] is at most 50 °C. For the same molecule, the “specific activity of the purified enzyme” value in data set [3] was 1.7 U/mg-protein.

These data come from patent US9783796B2, “Amidase, gene for the same, vector, transformant, and method for production of optically active carboxylic acid amide and optically active carboxylic acid by using any one of those items” (KANEKA CORPORATION, priority 2007, dated 2017).
